From patent publication US20250145608A1, “KRAS DEGRADING COMPOUNDS COMPRISING ANNULATED 2-AMINO-3-CYANO THIOPHENES” (Boehringer Ingelheim Int'l GmbH Corp., priority 2021, published 2025)
Where two headings read alike, the source gives them in different places.

Legend:
Format in all cases: cell-based
KRAS(G12D) = target: T1, KRAS(G12D) (Homo sapiens, UniProt P01116, G12D); test: HiBit degradation assay in GP5d-HiBit-KRAS(G12D) cells (18 h; DC50, Dmax)
T1 construct: introduced immediately downstream of the initiating Methionine codon of the endogenous KRAS locus; host or cells: GP5d-HiBit-KRAS(G12D), a CRISPR knock-in at the endogenous locus
T1 sequence (P01116 1-188 isoform P01116-2 G12D): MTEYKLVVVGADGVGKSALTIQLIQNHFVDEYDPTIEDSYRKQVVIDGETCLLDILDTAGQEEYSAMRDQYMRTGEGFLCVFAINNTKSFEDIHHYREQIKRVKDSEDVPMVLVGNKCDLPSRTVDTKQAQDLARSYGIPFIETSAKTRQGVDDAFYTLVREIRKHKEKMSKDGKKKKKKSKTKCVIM
Procedure, shortened: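 GP5d cells carry an endogenous N-terminal HiBit tag on KRAS(G12D), knocked in by CRISPR. They were seeded overnight in DMEM/10% FCS, exposed to compound for 18 h at 37° C, then lysed for HiBit luminescence, normalised to DMSO. DC50 comes from a four-parameter logistic fit; Dmax is maximal degradation as % of control.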

KRAS4B WT = target: T2, KRAS4B WT (Homo sapiens, UniProt P01116); test: HiBit KRAS4B mutant spectrum degradation assay, KRAS4B WT in GP5d cells (18 h); settings: KRAS mutation G12WT
T2 construct: HiBit; expressed in transfected cells; host or cells: GP5d cells (ECACC 95090715), stably transduced with lentivirus, CMV promoter
T2 sequence (P01116 1-188 isoform P01116-2): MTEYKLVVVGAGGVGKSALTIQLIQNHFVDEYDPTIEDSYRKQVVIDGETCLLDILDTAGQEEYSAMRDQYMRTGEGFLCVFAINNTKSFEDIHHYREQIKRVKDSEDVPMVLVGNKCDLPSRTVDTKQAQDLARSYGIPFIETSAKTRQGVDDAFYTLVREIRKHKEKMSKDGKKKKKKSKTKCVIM
Source text: (§1) The therapeutically relevant mutant KRAS constructs (WT, G12C, G12D, G12V, G13D) were obtained by site directed mutagenesis using a KRAS4B WT cDNA construct as a template. GP5d cells (ECACC Cat. No. 95090715) were transduced with lentiviral vectors expressing mutant KRAS4B cDNA under control of a CMV promoter. Stably transduced cells were selected using a neomycin selectable marker encoded on the construct.
(§2) To assess PROTAC-mediated degradation of various KRAS mutants, GP5d cells stably transduced with KRAS4B constructs as described above were seeded at 25000 cells per well in 100 μL Dulbecco's Modified Eagle medium (Sigma cat. no. D6429) supplemented with 10% fetal calf serum into white bottom opaque 96 well plates (Perkin Elmer cat no. 5680). Plates were incubated at 37° C., 5% CO2 in a humidified incubator over night to allow the cells to adhere. […] Plates were further incubated at 37° C. for 18 hours. Following incubation, 100 μL per well Promega Nano-Glo HiBit lytic detection reagent mix (Promega Nano-Glo HiBit Lytic Detection System #N3050), prepared according to the manufacturer's instructions in the kit, were added. To allow for adequate cell lysis, plates were incubated on an orbital shaker for 15 min and further incubated 30 min at room temperature. Upon completion of cell lysis, luminescence was measured using an Envision plate reader using the Ultrasensitive Luminescence Protocol for 96 well plates. Luminescence levels were normalized by the values obtained with DMSO-treated samples and plotted as percent of DMSO control. DC50 values were computed using a four parametric logistic model and are reported in nM in Table 65 for representative example (Ex.) compounds of the invention. Dmax values represent the maximal extent of degradation observed and is stated as percent of control (% Ctrl.) treatments in Table 66 for representative example (Ex.) compounds of the invention.

KRAS4B G12D = target: T3, KRAS4B G12D (Homo sapiens, UniProt P01116, G12D); test: HiBit KRAS4B mutant spectrum degradation assay, KRAS4B G12D in GP5d cells (18 h); settings: KRAS mutation G12D
T3 construct: HiBit; expressed in transfected cells; host or cells: GP5d cells (ECACC 95090715), stably transduced with lentivirus, CMV promoter
T3 sequence (P01116 1-188 isoform P01116-2 G12D): as the sequence (P01116 1-188 isoform P01116-2 G12D) above
Source text: as §1, §2

KRAS4B G12V = target: T4, KRAS4B G12V (Homo sapiens, UniProt P01116, G12V); test: HiBit KRAS4B mutant spectrum degradation assay, KRAS4B G12V in GP5d cells (18 h); settings: KRAS mutation G12V
T4 construct: HiBit; expressed in transfected cells; host or cells: GP5d cells (ECACC 95090715), stably transduced with lentivirus, CMV promoter
T4 sequence (P01116 1-188 isoform P01116-2 G12V): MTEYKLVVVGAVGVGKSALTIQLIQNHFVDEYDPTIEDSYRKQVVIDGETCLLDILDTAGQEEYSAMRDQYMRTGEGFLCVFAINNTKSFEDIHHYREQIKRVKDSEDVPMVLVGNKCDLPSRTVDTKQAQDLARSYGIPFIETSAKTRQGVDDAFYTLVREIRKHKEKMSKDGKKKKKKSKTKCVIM
Source text: as §1, §2

KRAS4B G13D = target: T5, KRAS4B G13D (Homo sapiens, UniProt P01116, G13D); test: HiBit KRAS4B mutant spectrum degradation assay, KRAS4B G13D in GP5d cells (18 h); settings: KRAS mutation G13D
T5 construct: HiBit; expressed in transfected cells; host or cells: GP5d cells (ECACC 95090715), stably transduced with lentivirus, CMV promoter
T5 sequence (P01116 1-188 isoform P01116-2 G13D): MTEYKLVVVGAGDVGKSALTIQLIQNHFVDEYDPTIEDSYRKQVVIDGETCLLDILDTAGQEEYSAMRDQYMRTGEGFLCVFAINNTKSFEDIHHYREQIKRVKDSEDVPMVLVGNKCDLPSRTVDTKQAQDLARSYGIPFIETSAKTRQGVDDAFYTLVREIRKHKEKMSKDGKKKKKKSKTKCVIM
Source text: as §1, §2

NCI-H358 cells = test: NCI-H358 CTG proliferation assay (120 h) (NSCLC, G12C); settings: Homo sapiens
Procedure, shortened: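 NCI-H358 cells (KRAS G12C) were seeded at 2000/well (assay 1) or 200/well (assay 2) in RPMI-1640 + 10% FCS and dosed with a logarithmic series, DMSO-normalized. After 120 h, viability was read by CellTiter-Glo luminescence as percent of DMSO control, with a T0 read at dosing. IC50 came from a four-parameter fit.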

GP5d cells = test: GP5d cell proliferation assay (colorectal cancer, G12D), 5 days; settings: Homo sapiens, 120 h
Experimental: GP5d Cell Proliferation Assay (Colorectal Cancer, G12D)
(§3) GP5d cells (ECACC 95090715) are dispensed into white bottom opaque 96 well plates at a density of 5000 cells per well in 100 μL DMEM (BioWhittaker, Cat #BE12-605F) supplemented with 10% FCS. […] Compounds (10 mM stock in DMSO) are added at logarithmic dose series using the HP Digital Dispenser D300 (Tecan), normalizing for added DMSO. For the TO time point measurement, untreated cells are analysed at the time of compound addition. Plates are incubated for 5 days, and cell viability is measured using CellTiter-Glo luminescent cell viability reagent (Promega, Cat. No G7570). Viability (stated as percent of control) is defined as relative luminescence units RLU of each well divided by the RLU of cells in DMSO controls. IC50 values were computed from relative viability values using a four parametric logistic model.

SW620 cells = test: SW620 cell proliferation assay (colorectal cancer, G12V), 5 days; settings: Homo sapiens, SW-620, 120 h
Experimental: SW620 Cell Proliferation Assay (Colorectal Cancer, G12V)
as §3, with “SW620” for “GP5d”, “(ATCC CCL-227)” for “(ECACC 95090715)”, “plates (Perkin Elmer cat no. 5680)” for “plates”, “2000” for “5000”

DC50 (KRAS(G12D)): 47.7 nM
Dmax 18 h (KRAS(G12D)): 94 % Ctrl
DC50 (KRAS4B WT): 36.2 nM
Dmax at 18 h (KRAS4B WT): 95.4 % Ctrl.
DC50 (KRAS4B G12D): 48 nM
Dmax at 18 h (KRAS4B G12D): 94 % Ctrl.
DC50 (KRAS4B G12V): 98.8 nM
Dmax at 18 h (KRAS4B G12V): 90 % Ctrl.
DC50 (KRAS4B G13D): 44.9 nM
Dmax at 18 h (KRAS4B G13D): 90 % Ctrl.
IC50 (NCI-H358 cells; assay 1, read-out: H358 (assay 1) IC50): 2500 nM
IC50 (NCI-H358 cells; assay 2, read-out: H358 (assay 2) IC50): 168 nM
IC50 (GP5d cells): 141 nM
IC50 (SW620 cells): 280 nM
Structure (SMILES): Cc1ncsc1-c1ccc(CNC(=O)[C@@H]2C[C@@H](O)CN2C(=O)[C@@H](NC(=O)CCCCCN2CCCN(c3nccc(-c4noc([C@@]5(C)CCCc6sc(N)c(C#N)c65)n4)n3)[C@@H](C)C2)C(C)(C)C)cc1 [I-47]
